From patent publication US20160257928A1, “Method for producing pluripotent stem cell having improved chimera forming ability from primed pluripotent stem cell, and composition and combination therefor” (The University of Tokyo, priority 2015, published 2016)

Assays:
Wnt/β catenin signal = test: Western blotting of β catenin in cytoplasmic and nuclear fractions; format: cell-based, mouse; conditions: EB3DR-EpiSC; for inhibition of Wnt/β catenin signal: Western blotting (FIG. 4 (A))
Experimental: First, in order to confirm the effect of IWP-2 on a Wnt/β catenin signal inhibition, the amount of protein in β catenin was checked by Western blotting. The EB3DR-EpiSC was cultured under the aforementioned culturing conditions, IWP-2 (at a final concentration of 5 nM) was added thereto, and the resultant was cultured for another 2 days. As a control, the same amount of DMSO was added instead of IWP-2. Next, Nuclear/Cytosol Fractionation Kit (Bio Vision, manufactured by Mountain View, Calif.) was used in accordance with the manufacturer's manual to separate a cytoplasmic fraction and a nuclear fraction. Each of these fractions thus obtained was dissolved in Laemmli Sample Buffer (Bio-Rad, manufactured by Hercules, Calif.) to perform SDS-PAGE. A protein separated by the SDS-PAGE was blotted on a PVDF transfer membrane (manufactured by Millipore Corporation) to perform a primary antibody reaction.
As a primary antibody, an anti-β catenin antibody (#9562, 1:1000), an anti-(β-actin antibody (#3770, 1:1000), or an anti-histone H3 antibody (#4499, 1:2000) purchased from Cell Signaling Technology Inc. was used. As a secondary antibody, for the anti-β catenin antibody or the anti-histone H3 antibody, an anti-rabbit IgG Horseradish peroxidase-conjugated antibody (NA934V, 1:100, manufactured by GE Healthcare UK, Little Chalfont, UK) was used for the reaction, and for the anti-β-actin antibody, an anti-mouse IgG Horseradish peroxidase-conjugated antibody (NA931V, 1:1000, manufactured by GE Healthcare UK, Little Chalfont, UK) was used for the reaction, and then a band bonded to the secondary antibody was detected by SuperSignal West Pico Chemiluminescent Substrate (manufactured by Thermo Fisher Scientific Inc., Rockford, Ill.). As a result, it was confirmed that the amount of β catenin was reduced in the nuclear fraction by IWP-2 and that a Wnt/β catenin signal was thus inhibited (see FIG. 4, (A)).

STAT3 signal = test: Western blotting of phosphorylated STAT3; format: cell-based, mouse; conditions: EB3DR-EpiSC, 2nd day after stimulation
Description: Besides, the EB3DR-EpiSC was stimulated with LIF, the resultant cell was collected on the 2nd day after stimulation, and the activation of a STAT3 signal was checked by the Western blotting. The activation of a STAT3 signal was checked on the basis of the presence of phosphorylated STAT3. The phosphorylated STAT3 was detected by using, as a primary antibody, an anti-P-STAT3 antibody (#9145, 1:2000, manufactured by Cell Signaling Technology Inc.) […] specifically recognizing phosphorylated STAT3.

EB3DR-EpiSC [1] = test: Chimera forming ability after injection into mouse blastocyst; format: in vivo; conditions: EpiSC treated with LIF and the inhibitor, about 10 cells injected per embryo
Experimental: Furthermore, the chimera forming ability of the EB3DR-EpiSC treated with LIF and IWP-2 was checked. Specifically, the embryo of a BDF1 (C57BL6/N; DBA1 F1) mouse was cultured in Medium 2 (manufactured by Millipore Corporation) to the eight-cell stage or morula stage. The resultant embryo was transferred to KSOM medium (manufactured by Millipore Corporation) and cultured for 24 hours to be developed to the blastocyst stage. For the injection into an embryo, the cell was dissociated into a single cell by a trypsin treatment, and the resultant was suspended in a medium. A zona pellucida was perforated under a microscope by using a piezoelectric micromanipulator, and a chimeric embryo was produced by injecting approximately 10 cells into a space below the zona pellucida in each embryo. After the injection, the embryo was cultured in KSOM medium until a blastomere was obtained, and then, the resultant was transplanted into the uterus of a pseudopregnant ICR recipient female mouse. The chimera formation was checked on the basis of the color of a fur. A cell derived from BDF1×C57BL/6 grows a black fur, and a cell derived from 129/Ola grows a brown (agouti-colored) fur. […]

EB3DR-EpiSC [2] = test: Naive pluripotent stem cell-like colony formation of EpiSC; format: cell-based, mouse
Experimental: The EB3DR-EpiSC was cultured in N2B27 medium (Ying et al., Nature (2008), 435, 519-523) supplemented with 1,000 U/mL of mouse LIF and 1 μM of PD0325901 (manufactured by Axon, Groeningen, The Netherlands). To the resultant, 5 nM of IWP-2 (manufactured by Wako Pure Chemical Industries, Ltd., Osaka, Japan) was added, or CHIR known as an inhibitor of GSK3β or the same amount of DMSO was added instead of IWP-2, so as to check the influence on the EB3DR-EpiSC.
(§1) The naive-like colony formation and the chimera formation were checked in the same manner as described above except that XAV939 (manufactured by Sigma-Aldrich, S. Louis, Mo., USA) was used as the Wnt/β catenin signal inhibitor instead of IWP-2.

EB3DR-EpiSC [3] = test: CD31 (PECAM-1) expression by FACS; format: cell-based, mouse; conditions: for expression of CD31 (CD31 positive cell frequency): in the presence of LIF
Experimental: Next, the expression of CD31 (PECAM-1) in these cells was analyzed. The expression level of CD31 was checked by the FACS by using an APC labeled rat anti-mouse CD31 antibody (manufactured by eBioscience, 17-0311). […] When a colony of the CD31 expressing cell was cloned and subcultured, a mouse ES cell-like morphology was obtained (see FIG. 4, (G)), and such a cell could be subcultured continuously for a long period of time similarly to a mouse ES cell. Since the cell was derived from the EB3DR-EpiSC, DsRed was expressed therein (see FIG. 4, (H)).
as §1

EB3DR-EpiSC-TRE-Cdh1 = test: CD31 expression by FACS in E-cadherin induced EpiSC; format: cell-based, mouse; conditions: 7 days, with forced expression of E-cadherin (Dox(+), 10 μg/mL doxycycline)
Experimental: The EB3DR-EpiSC-TRE-Cdh1 was cultured for 7 days in the presence of a basic fibroblast growth factor (bFGF) or LIF in a usual medium (Dox(−)) or a medium supplemented with 10 μg/mL of doxycycline (Dox(+)), and the resultant cell was dissociated with a trypsin/EDTA solution and stained with an APC labeled anti-mouse CD31 antibody to be analyzed by using the FACS.

Compound | inhibition of Wnt/β catenin signal (Wnt/β catenin signal) | amount of β catenin in the nuclear fraction (Wnt/β catenin signal; final concentration 5 nM, 2 days, vs DMSO) | activation of a STAT3 signal (presence of phosphorylated STAT3) (STAT3 signal) | chimera formation (production of a chimeric animal) (EB3DR-EpiSC [1]) | appearance of a colony corresponding to a naive pluripotent stem cell-like morphology, time after culture (EB3DR-EpiSC [2]; N2B27 medium with 1,000 U/mL mouse LIF and 1 μM PD0325901, 5 nM IWP-2) [days] | appearance frequency of a colony characteristic to the naive pluripotent stem cell on the 14th day after culture (EB3DR-EpiSC [2]; N2B27 medium with LIF and PD0325901, 5 nM IWP-2, vs CHIR or DMSO) | expression of CD31 (CD31 positive cell frequency) (EB3DR-EpiSC [3]) | CD31 (Pecam1) positive cell proportion (EB3DR-EpiSC-TRE-Cdh1) | naive-like colony formation on the 7th day after treatment (EB3DR-EpiSC [2]; LIF used in combination) | proportion of the CD31 (PECAM-1) positive cell on the 7th day after treatment (EB3DR-EpiSC [3]; LIF used in combination)
Cc1ccc2nc(NC(=O)CSc3nc4c(c(=O)n3-c3ccccc3)SCC4)sc2c1 [IWP-2, N-(6-methyl-2-benzothiazolyl)-2-[(3,4,6,7-tetrahydro-4-oxo-3-phenylthieno[3,2-d]pyrimidine-2-yl)thio]-acetamide] | inhibited | reduced | also observed | confirmed, based on the fur color, as a chimeric mouse | ≤ 7 | significantly increased | expressed at a high frequency in a short period of time |  |  | 
bFGF: basic fibroblast growth factor, culture medium supplement |  |  |  |  |  |  |  | the level was merely restrictive |  | 
O=c1[nH]c(-c2ccc(C(F)(F)F)cc2)nc2c1CSCC2 [XAV939, 3,5,7,8-tetrahydro-2-[4-(trifluoromethyl)phenyl]-4H-thiopyrano[4,3-d]pyrimidine-4-one] | work as an inhibitor of a Wnt/β catenin signal |  | also observed | a chimeric animal was produced |  |  | observed at a high frequency |  | formed a naive-like colony | remarkably increased
